Assay results reported in US8329639B2, “MUC1 based glycolipopeptide vaccine with adjuvant” (priority 2011, dated 2012).

Key:
[1] = test system: MC38-MUC1 tumor cells; assay: Tumor growth, MC38-MUC1 model; assay type: in vivo, C57B1/6 mice; conditions: vaccine 5 μg, Liposomal PET Lipid A 50 μg
Procedure: (§1) C57B1/6 mice were treated using a bi-weekly schedule with saline vehicle, 50 μg Liposomal PET Lipid A or 5 μg of liposomal vaccine formulation of Example 1 starting on day −42. On Day 0, mice were challenged with either 2×10^6 B16-MUC1, 0.5×10^6 B16, or 2×10^6MC38-MUC1 tumor cells followed by two additional vaccinations on days +3 and +17. Tumor growth was recorded twice weekly.
In the MC38-MUC1 model, 3/12 animals were tumor free in the Example 1 vaccine formulation group at the end of the study. […] By Day 32, mean tumor volume was about 120 mm^3 for the Example 1 vaccine formulation group as compared to about 1200 mm^3 for the PET lipid A group and about 1700 mm^3 for the saline group.

[2] = test system: MUC1 antigen having SEQ ID NO: 2; assay: Humoral response: serum IgG ELISA on plates coated with MUC1 antigen; assay type: in vivo, C57B1/6J mice; conditions: vaccine 5, 25 and 100 μg/mouse; PET lipid A 50 μg; serially diluted sera
Procedure: C57B1/6J mice were injected with a liposomal vaccine formulation of Example 1 in three different concentrations of vaccine (5, 25 and 100 μg). 50 μg dose of PET lipid A and saline were used as a negative control. Sera from the mice were isolated and subsequently serially diluted and incubated onto plates coated with MUC1 antigen having SEQ ID NO: 2. After incubation with sera, the plates were washed and a labeled anti-mouse IgG specific antibody was added. The antibody was washed off and the mouse IgG was measured via an ELISA reader.

[3] = test system: B16-MUC1 tumor cells; assay: Tumor growth, B16-MUC1 model; assay type: in vivo, C57B1/6 mice; conditions: 50 μg Liposomal PET Lipid A, value stated jointly with saline group
Procedure: as §1
In the B16-MUC1 model, animals treated with the Example 1 vaccine formulation had no tumors at Day 44. 9/12 animals were tumor free in the Example 1 vaccine formulation group at end of study. […] Mean tumor volume in these two groups was about 200 mm^3 by Day 10. By Day 24, mean tumor volume was about 1200 mm^3 for the saline and PET lipid A groups.

Substance: pentaerythritol-6-chain-C14-glucosamine-mono-phosphate [PET lipid A]
- mean tumor volume by Day 32 [1]: about 1200 mm^3
- antibody (IgG) response by ELISA [2]: no antibody response
- mean tumor volume by Day 10 [3]: about 200 mm^3
- mean tumor volume by Day 24 [3]: about 1200 mm^3
